Assay results reported in PubChem BioAssay AID248 (DTP/NCI, 2004).
“And” between values parts separate entries of the source, which are not always exact repeats. Equal entries are not always repeated. Inconclusive results and toxic doses are left out. Rule as the data show it: active = T/C of 150% or more; inactive = T/C below 125%.

Test system: L1210 leukemia ip in BDF1 mice, survival T/C
Experiment: NCI In Vivo Anticancer Drug Screen. Data for tumor model L1210 Leukemia (intraperitoneal) in B6D2F1 (BDF1) mice
Conditions: endpoint: mean survival time, higher = longer survival
Method in brief: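 Value reflects the ratio of survival in compound-treated mice to survival in vehicle-treated controls, with both groups carrying the same transplanted tumor.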

[1] = dose: 100.0 mg/kg/injection, schedule: Q04DX002 (ip), vehicle: saline with Tween-80
[2] = dose: 200.0 mg/kg/injection, schedule: Q04DX002 (ip), vehicle: saline with Tween-80
[3] = dose: 100.0 mg/kg/injection, schedule: Q01DX001 (ip), vehicle: saline with Tween-80
[4] = dose: 200.0 mg/kg/injection, schedule: Q01DX001 (ip), vehicle: saline with Tween-80
[5] = dose: 400.0 mg/kg/injection, schedule: Q01DX001 (ip), vehicle: saline with Tween-80
[6] = dose: 100.0 mg/kg/injection, schedule: Q01DX009 (ip), vehicle: saline with Tween-80
[7] = dose: 200.0 mg/kg/injection, schedule: Q01DX009 (ip), vehicle: saline with Tween-80
[8] = dose: 100.0 mg/kg/injection, schedule: Q04DX003 (ip), vehicle: Klucel (hydroxypropylcellulose) (HPC)
[9] = dose: 200.0 mg/kg/injection, schedule: Q04DX003 (ip), vehicle: Klucel (hydroxypropylcellulose) (HPC)
[10] = dose: 400.0 mg/kg/injection, schedule: Q04DX003 (ip), vehicle: Klucel (hydroxypropylcellulose) (HPC)
[11] = dose: 100.0 mg/kg/injection, schedule: Q01DX001 (ip), vehicle: saline
[12] = dose: 200.0 mg/kg/injection, schedule: Q01DX001 (ip), vehicle: saline
[13] = dose: 400.0 mg/kg/injection, schedule: Q01DX001 (ip), vehicle: saline

Measured: T/C

CCCCC(=O)N1CCCCC1C (configuration not stated)
inactive: dose: 50.0 mg/kg/injection, schedule: Q01DX001 (ip), vehicle: carboxymethylcellulose (CMC) 102 % of control | dose: 50.0 mg/kg/injection, schedule: Q01DX009 (ip), vehicle: carboxymethylcellulose (CMC) 94 % of control and 100 % of control | dose: 50.0 mg/kg/injection, schedule: Q04DX003 (ip), vehicle: carboxymethylcellulose (CMC) 96 % of control | dose: 100.0 mg/kg/injection, schedule: Q01DX001 (ip), vehicle: carboxymethylcellulose (CMC) 101 % of control | dose: 100.0 mg/kg/injection, schedule: Q01DX009 (ip), vehicle: carboxymethylcellulose (CMC) 97 % of control and 98 % of control | dose: 100.0 mg/kg/injection, schedule: Q04DX002 (ip), vehicle: carboxymethylcellulose (CMC) 105 % of control | dose: 100.0 mg/kg/injection, schedule: Q04DX003 (ip), vehicle: carboxymethylcellulose (CMC) 100 % of control | dose: 200.0 mg/kg/injection, schedule: Q01DX001 (ip), vehicle: carboxymethylcellulose (CMC) 101 % of control | dose: 200.0 mg/kg/injection, schedule: Q01DX009 (ip), vehicle: carboxymethylcellulose (CMC) 96 % of control and 97 % of control | dose: 200.0 mg/kg/injection, schedule: Q04DX002 (ip), vehicle: carboxymethylcellulose (CMC) 98 % of control | dose: 200.0 mg/kg/injection, schedule: Q04DX003 (ip), vehicle: carboxymethylcellulose (CMC) 105 % of control | dose: 400.0 mg/kg/injection, schedule: Q04DX002 (ip), vehicle: carboxymethylcellulose (CMC) 102 % of control

Cc1cc(C)n(C(=O)Nc2ccccc2)n1
inactive: [1] 105 % of control | [2] 100 % of control

O=C(NC1CCCCC1)N(O)C12CC3CC(CC(C3)C1)C2
inactive: [3] 108 % of control | [4] 92 % of control | [5] 95 % of control

O=CNC(Cc1ccc(OCc2ccccc2)cc1)C(=O)O (configuration not stated)
inactive: dose: 50.0 mg/kg/injection, schedule: Q01DX009 (ip), vehicle: saline with Tween-80 98 % of control | [3] 89 % of control | [6] 96 % of control | [4] 95 % of control | [7] 98 % of control | [5] 88 % of control

CC1C(=O)C(C)C(C(=O)O)C1C (configuration not stated)
inactive: dose: 100.0 mg/kg/injection, schedule: Q04DX002 (ip), vehicle: Klucel (hydroxypropylcellulose) (HPC) 100 % of control | dose: 200.0 mg/kg/injection, schedule: Q04DX002 (ip), vehicle: Klucel (hydroxypropylcellulose) (HPC) 107 % of control | dose: 400.0 mg/kg/injection, schedule: Q04DX002 (ip), vehicle: Klucel (hydroxypropylcellulose) (HPC) 93 % of control

CCCCc1c(O)nc(NCCCC(N)C(=O)O)[nH]c1=O (configuration not stated)
inactive: dose: 75.0 mg/kg/injection, schedule: Q01DX001 (ip), vehicle: saline 93 % of control | dose: 150.0 mg/kg/injection, schedule: Q01DX001 (ip), vehicle: saline 95 % of control | dose: 300.0 mg/kg/injection, schedule: Q01DX001 (ip), vehicle: saline 96 % of control

C=Cc1ccccc1 (tested in a mixture with another compound)
inactive: dose: 75.0 mg/kg/injection, schedule: Q01DX001 (ip), vehicle: other 101 % of control | dose: 150.0 mg/kg/injection, schedule: Q01DX001 (ip), vehicle: other 97 % of control | dose: 300.0 mg/kg/injection, schedule: Q01DX001 (ip), vehicle: other 87 % of control

CCCOC(=O)N(CC)C(=NCC)c1ccc(NC(=O)c2ccc(C(=O)Nc3ccc(C(=NCC)N(CC)C(=O)OCCC)cc3)cc2)cc1
inactive: dose: 2.5 mg/kg/injection, schedule: Q01DX015 (ip), vehicle: methylcellulose (MC) 95 % of control | dose: 5.0 mg/kg/injection, schedule: Q01DX015 (ip), vehicle: methylcellulose (MC) 101 % of control | dose: 10.0 mg/kg/injection, schedule: Q01DX015 (ip), vehicle: methylcellulose (MC) 101 % of control | dose: 20.0 mg/kg/injection, schedule: Q01DX015 (ip), vehicle: methylcellulose (MC) 109 % of control | dose: 37.5 mg/kg/injection, schedule: Q01DX015 (ip), vehicle: methylcellulose (MC) 112 % of control | dose: 75.0 mg/kg/injection, schedule: Q01DX015 (ip), vehicle: methylcellulose (MC) 90 % of control | dose: 150.0 mg/kg/injection, schedule: Q01DX015 (ip), vehicle: methylcellulose (MC) 92 % of control | dose: 300.0 mg/kg/injection, schedule: Q01DX015 (ip), vehicle: methylcellulose (MC) 93 % of control

O=[N+]([O-])c1ccc2c3c(ccc(Br)c13)CC2
inactive: dose: 100.0 mg/kg/injection, schedule: Q01DX009 (ip), vehicle: saline sonified 103 % of control | [8] 106 % of control | dose: 200.0 mg/kg/injection, schedule: Q01DX009 (ip), vehicle: saline sonified 103 % of control | [9] 98 % of control | dose: 400.0 mg/kg/injection, schedule: Q01DX009 (ip), vehicle: saline sonified 100 % of control | [10] 92 % of control

COc1ccc(/C=C2\CSC(=O)NC2=O)cc1OC
inactive: [11] 104 % of control | [12] 106 % of control | [13] 106 % of control

CNCCC(=O)c1ccccc1
inactive: [8] 99 % of control | [9] 99 % of control

NC(=O)c1c(/N=C/c2cc(Cl)cc(Cl)c2O)sc2c1CCCC2
inactive: [1] 96 % of control | [2] 93 % of control | dose: 400.0 mg/kg/injection, schedule: Q04DX002 (ip), vehicle: saline with Tween-80 96 % of control

C[C@]12C=CC(=O)C=C1CC[C@@H]1[C@@H]2[C@@H](O)C[C@@]2(C)[C@H]1CC[C@]2(O)C(=O)COC(=O)C1CCCC1
inactive: dose: 89.0 mg/kg/injection, schedule: Q01DX Z (sc), vehicle: distilled water + alcohol 111 % of control | dose: 89.0 mg/kg/injection, schedule: Q01DX Z (sc), vehicle: steriod suspending solution 104 % of control | dose: 130.0 mg/kg/injection, schedule: Q01DX Z (sc), vehicle: steriod suspending solution 98 % of control | dose: 133.0 mg/kg/injection, schedule: Q01DX Z (sc), vehicle: distilled water + alcohol 96 % of control | dose: 200.0 mg/kg/injection, schedule: Q01DX Z (sc), vehicle: distilled water + alcohol 96 % of control | dose: 200.0 mg/kg/injection, schedule: Q01DX Z (sc), vehicle: steriod suspending solution 112 % of control | dose: 300.0 mg/kg/injection, schedule: Q01DX Z (sc), vehicle: distilled water + alcohol 108 % of control | dose: 300.0 mg/kg/injection, schedule: Q01DX Z (sc), vehicle: steriod suspending solution 93 % of control

Cc1ccc(C)c(N=Nc2ccc(O)cc2)c1
inactive: [6] 94 % of control | [7] 93 % of control

O=S(=O)(CC(Cl)c1ccccc1)c1ccccc1 (configuration not stated)
inactive: dose: 100.0 mg/kg/injection, schedule: Q01DX001 (ip), vehicle: acetone 95 % of control | dose: 100.0 mg/kg/injection, schedule: Q01DX009 (ip), vehicle: saline 91 % of control | dose: 200.0 mg/kg/injection, schedule: Q01DX001 (ip), vehicle: acetone 98 % of control | dose: 200.0 mg/kg/injection, schedule: Q01DX009 (ip), vehicle: saline 94 % of control | dose: 400.0 mg/kg/injection, schedule: Q01DX001 (ip), vehicle: acetone 92 % of control | dose: 400.0 mg/kg/injection, schedule: Q01DX009 (ip), vehicle: saline 89 % of control

CCCCCCCCCCP(=S)(CCCC)CCCC
inactive: [8] 98 % of control | [9] 101 % of control | [10] 104 % of control

NC(N)=NC(N)=Nc1ccc(Cl)cc1
inactive: [8] 103 % of control

CC1(N)COP(=O)(NCc2ccccc2)OC1 (configuration not stated)
inactive: [11] 95 % of control | [12] 103 % of control | [13] 103 % of control

O=C(O)C1CC1C(=O)c1ccccc1 (configuration not stated)
inactive: dose: 25.0 mg/kg/injection, schedule: Q01DX001 (ip), vehicle: Klucel (hydroxypropylcellulose) (HPC) 98 % of control | dose: 50.0 mg/kg/injection, schedule: Q01DX001 (ip), vehicle: Klucel (hydroxypropylcellulose) (HPC) 97 % of control | dose: 100.0 mg/kg/injection, schedule: Q01DX001 (ip), vehicle: Klucel (hydroxypropylcellulose) (HPC) 96 % of control and 98 % of control | dose: 200.0 mg/kg/injection, schedule: Q01DX001 (ip), vehicle: Klucel (hydroxypropylcellulose) (HPC) 86 % of control | dose: 400.0 mg/kg/injection, schedule: Q01DX001 (ip), vehicle: Klucel (hydroxypropylcellulose) (HPC) 103 % of control
